# Values quoted from earlier work, collected in patent publication US20090197815A1, “COMBINATION OF SOMATOSTATIN-ANALOGS WITH DOPAMINE- OR GROWTH HORMONE RECEPTOR ANTAGONIST” (priority 2006, published 2009).
# Like-named read-outs stand apart in the source and are kept apart here.
# Experiments:
# patients with acromegaly [1] = test system: patients with acromegaly
# acromegalic patients [2] = conditions: cabergoline 1-3.5 mg/week added to depot SSA at maximum registered dose, 19 patients
# patients with acromegaly [3] = conditions: daily subcutaneous monotherapy
# acromegalic patients [4] = test system: acromegalic patients
compound,measurement,setting,value
"C[C@@H](O)[C@@H]1NC(=O)[C@H](CCCCN)NC(=O)[C@@H](Cc2c[nH]c3ccccc23)NC(=O)[C@H](Cc2ccccc2)NC(=O)[C@@H](NC(=O)[C@H](N)Cc2ccccc2)CSSC[C@@H](C(=O)N[C@H](CO)[C@@H](C)O)NC1=O [Sandostatin®, octreotide acetate]",normalization of IGF-I,patients with acromegaly [1],approximately 60 % of cases
same,patients with GH levels decreasing to <2.0 μg/L,patients with acromegaly [1],40 % of patients
same,patients with GH levels decreasing to <5.0 μg/L,patients with acromegaly [1],65 % of patients
C=CCN1C[C@H](C(=O)N(CCCN(C)C)C(=O)NCC)C[C@@H]2c3cccc4[nH]cc(c34)C[C@H]21 [cabergoline],normalization of IGF1,acromegalic patients [2],42 % patients
same,normalized both biochemical markers (GH<2.5 μg/L and IGF1 for age),acromegalic patients [2],16 % of patients
same,reduction of GH<2.5 μg/L,acromegalic patients [2],21 % of patients
pegvisomant,change of GH concentrations during therapy,patients with acromegaly [3],increased by nearly twofold
same,normalization of circulating IGF-I levels,patients with acromegaly [3],80 to 90 % of patients
same,tolerability,patients with acromegaly [3],good tolerability
same,IGF-I concentration normal,"acromegalic patients [4]; after 18 weeks, at least 50 mg pegvisomant per week, with monthly 30 mg Sandostatin LAR or 120 mg lanreotide Autogel",81 % of patients
same,IGF-I concentration normal,"acromegalic patients [4]; at week 42, weekly pegvisomant with monthly 30 mg Sandostatin LAR or 120 mg lanreotide Autogel",95 % of patients
same,median weekly dose needed to return IGF-I concentration to normal,"acromegalic patients [4]; combined with monthly long-acting SSA, range 40-80 mg",60 mg
same,patients with mild non-progressive increases in liver transaminases,"acromegalic patients [4]; from week 12, independent from pegvisomant dose, 10 patients, combined with long-acting SSA",38%
